Assay results published in PubChem BioAssay (NCI).
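GI50: concentration for 50% inhibition of growth. TGI denotes the concentration required for complete inhibition of growth.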

How the values were obtained:
Experiment in all cases: inhibition of tumour cell growth, NCI panel, 384-well format
HCT-15 colon = tested on: HCT-15 colon
HOP-92 NSCLC = tested on: HOP-92 NSCLC
KM12 colon = tested on: KM12 colon
MDA-MB-468 breast = tested on: MDA-MB-468 breast
NCI-H23 lung = tested on: NCI-H23 lung
NCI-H522 lung = tested on: NCI-H522 lung
OVCAR-3 ovarian = tested on: OVCAR-3 ovarian
PC-3 prostate = tested on: PC-3 prostate
RPMI-8226 leukemia = tested on: RPMI-8226 leukemia
SF-539 CNS = tested on: SF-539 CNS
SK-MEL-2 melanoma = tested on: SK-MEL-2 melanoma
SK-MEL-5 melanoma = tested on: SK-MEL-5 melanoma
SR leukemia = tested on: SR leukemia

Question: Which results are given for `COc1nn(C)cc1Nc1nccc(-c2c[nH]c3c(NC(=O)[C@@H](C)N4CCN(C)CC4)cccc23)n1`?
Answer: GI50 (HCT-15 colon): 18.7 µM; TGI (HCT-15 colon): 51.7 µM; GI50 (HOP-92 NSCLC): 20.4 µM; TGI (HOP-92 NSCLC): 47.6 µM; GI50 (KM12 colon): 20.1 µM; TGI (KM12 colon): 61.2 µM; GI50 (MDA-MB-468 breast): 15.1 µM; TGI (MDA-MB-468 breast): 30.9 µM; GI50 (NCI-H23 lung): 17.4 µM; TGI (NCI-H23 lung): 42.3 µM; GI50 (NCI-H522 lung): 10.2 µM; TGI (NCI-H522 lung): 26.5 µM; GI50 (OVCAR-3 ovarian): 18.7 µM; TGI (OVCAR-3 ovarian): 51.2 µM; GI50 (PC-3 prostate): 23.1 µM; TGI (PC-3 prostate): 86 µM; GI50 (RPMI-8226 leukemia): 11.2 µM; TGI (RPMI-8226 leukemia): 26.6 µM; GI50 (SF-539 CNS): 14.8 µM; TGI (SF-539 CNS): 30.3 µM; GI50 (SK-MEL-2 melanoma): 14.7 µM; TGI (SK-MEL-2 melanoma): 29.5 µM; GI50 (SK-MEL-5 melanoma): 14.5 µM; TGI (SK-MEL-5 melanoma): 28.3 µM; GI50 (SR leukemia): 9.69 µM; TGI (SR leukemia): 21.5 µM
